Key:
[1] = Plasma concentrations of d6-DM, d3-DX, d3-3-MM and Q (Example 1); conditions: 2 to 3 hours after morning dose
Method: Plasma samples were separated by centrifugation and then frozen at −20° C. until assayed at the analytical unit.

[2] = PK parameters (Cmax, AUC) estimated from measured drug concentrations with a PK model (Example 1); assay type: in vivo, human
[3] = d6-DM/Q/d6-DM/Q group at Visit 4 (Week 6)
[4] = d6-DM/Q/d6-DM/Q group at Visit 7 (Week 12)
[5] = placebo/d6-DM/Q group at Visit 7 (Week 12)
[6] = Visit 4 (Week 6), d6-DM/Q/d6-DM/Q, All metabolizer types
[7] = Visit 4 (Week 6), d6-DM/Q/d6-DM/Q, Extensive metabolizer subgroup
[8] = Visit 4 (Week 6), d6-DM/Q/d6-DM/Q, Intermediate metabolizer subgroup
[9] = Visit 4 (Week 6), d6-DM/Q/d6-DM/Q, Poor metabolizer subgroup
[10] = Visit 4 (Week 6), d6-DM/Q/d6-DM/Q, Ultra-Rapid metabolizer subgroup
[11] = Visit 7 (Week 12), d6-DM/Q/d6-DM/Q, All metabolizer types
[12] = Visit 7 (Week 12), d6-DM/Q/d6-DM/Q, Extensive metabolizer subgroup
[13] = Visit 7 (Week 12), d6-DM/Q/d6-DM/Q, Intermediate metabolizer subgroup
[14] = Visit 7 (Week 12), d6-DM/Q/d6-DM/Q, Ultra-Rapid metabolizer subgroup
[15] = Visit 7 (Week 12), placebo/d6-DM/Q, All metabolizer types
[16] = Visit 7 (Week 12), placebo/d6-DM/Q, Extensive metabolizer subgroup
[17] = Visit 7 (Week 12), placebo/d6-DM/Q, Intermediate metabolizer subgroup
[18] = Visit 7 (Week 12), placebo/d6-DM/Q, Poor metabolizer subgroup

## [2H]C([2H])([2H])Oc1ccc2c(c1)C13CCCCC1C(C2)NCC3 (stereo not shown) [d3-3-MM]
[1]; [3]
  mean plasma concentration, all patients: 20.5 ng/mL
[1]; [4]
  mean plasma concentration, all patients: 19.4 ng/mL
[1]; [5]
  mean plasma concentration, all patients: 23.4 ng/mL

## [2H]C([2H])([2H])N1CCC23CCCCC2C1Cc1ccc(O)cc13 (stereo not shown) [d3-DX, deuterated (d3)-dextrorphan]
[1]; [3]
  mean plasma concentration, all patients: 101.2 ng/mL
[1]; [4]
  mean plasma concentration, all patients: 111.6 ng/mL
[1]; [5]
  mean plasma concentration, all patients: 124.5 ng/mL
[2]; [6]
  AUC, mean (SD): 1142.3 (378.08) h × ng/mL
  AUC, median (min, max): 1083.8 (506, 2091) h × ng/mL
  Cmax, mean (SD): 127.4 (50.25) ng/mL
  Cmax, median (min, max): 121.6 (56, 332) ng/mL
[2]; [7]
  AUC, mean (SD): 1235.3 (389.01) h × ng/mL
  AUC, median (min, max): 1119.6 (729, 2091) h × ng/mL
  Cmax, mean (SD): 144.6 (56.42) ng/mL
  Cmax, median (min, max): 134.9 (72, 332) ng/mL
[2]; [8]
  AUC, mean (SD): 1044.8 (340.96) h × ng/mL
  AUC, median (min, max): 991.6 (506, 1847) h × ng/mL
  Cmax, mean (SD): 111.5 (38.83) ng/mL
  Cmax, median (min, max): 101.2 (56, 195) ng/mL
[2]; [9]
  AUC, mean (SD): 887.2 (na) h × ng/mL
  AUC, median (min, max): 887.2 (887, 887) h × ng/mL
  Cmax, mean (SD): 87.2 (na) ng/mL
  Cmax, median (min, max): 87.2 (87, 87) ng/mL
[2]; [10]
  AUC, mean (SD): 1774.7 (na) h × ng/mL
  AUC, median (min, max): 1774.7 (1775, 1775) h × ng/mL
  Cmax, mean (SD): 193.1 (na) ng/mL
  Cmax, median (min, max): 193.1 (193, 193) ng/mL
[2]; [11]
  AUC, mean (SD): 1142.8 (378.46) h × ng/mL
  AUC, median (min, max): 1087.1 (511, 2115) h × ng/mL
  Cmax, mean (SD): 126.8 (50.32) ng/mL
  Cmax, median (min, max): 123.0 (57, 337) ng/mL
[2]; [12]
  AUC, mean (SD): 1243.6 (394.70) h × ng/mL
  AUC, median (min, max): 1123.4 (740, 2115) h × ng/mL
  Cmax, mean (SD): 144.9 (56.98) ng/mL
  Cmax, median (min, max): 133.9 (76, 337) ng/mL
[2]; [13]
  AUC, mean (SD): 1015.0 (312.22) h × ng/mL
  AUC, median (min, max): 1000.2 (511, 1833) h × ng/mL
  Cmax, mean (SD): 106.3 (33.76) ng/mL
  Cmax, median (min, max): 100.6 (57, 187) ng/mL
[2]; [14]
  AUC, mean (SD): 1783.3 (na) h × ng/mL
  AUC, median (min, max): 1783.3 (1783, 1783) h × ng/mL
  Cmax, mean (SD): 190.3 (na) ng/mL
  Cmax, median (min, max): 190.3 (190, 190) ng/mL
[2]; [15]
  AUC, mean (SD): 1181.4 (515.68) h × ng/mL
  AUC, median (min, max): 1085.8 (651, 3622) h × ng/mL
  Cmax, mean (SD): 126.6 (49.10) ng/mL
  Cmax, median (min, max): 116.4 (65, 318) ng/mL
[2]; [16]
  AUC, mean (SD): 1323.8 (623.07) h × ng/mL
  AUC, median (min, max): 1131.7 (750, 3622) h × ng/mL
  Cmax, mean (SD): 142.5 (56.08) ng/mL
  Cmax, median (min, max): 130.9 (80, 318) ng/mL
[2]; [17]
  AUC, mean (SD): 1014.1 (202.39) h × ng/mL
  AUC, median (min, max): 940.4 (745, 1367) h × ng/mL
  Cmax, mean (SD): 108.0 (24.89) ng/mL
  Cmax, median (min, max): 105.2 (76, 168) ng/mL
[2]; [18]
  AUC, mean (SD): 651.2 (na) h × ng/mL
  AUC, median (min, max): 651.2 (651, 651) h × ng/mL
  Cmax, mean (SD): 65.1 (na) ng/mL
  Cmax, median (min, max): 65.1 (65, 65) ng/mL

Reference: US20220071989A1, “METHODS OF TREATING NEGATIVE SYMPTOMS OF SCHIZOPHRENIA USING DEUTERATED DEXTROMETHORPHAN AND QUINIDINE” (AVANIR PHARMACEUTICALS, INC., priority 2019, published 2022)
